Test results from BindingDB's records for doi:10.1124/jpet.102.046797 (University of Maryland, 2003).

Biological target: T1, Gamma-hydroxybutyrate receptor (Rattus norvegicus, UniProt Q6RY99)
T1 sequence (Q6RY99 whole entry): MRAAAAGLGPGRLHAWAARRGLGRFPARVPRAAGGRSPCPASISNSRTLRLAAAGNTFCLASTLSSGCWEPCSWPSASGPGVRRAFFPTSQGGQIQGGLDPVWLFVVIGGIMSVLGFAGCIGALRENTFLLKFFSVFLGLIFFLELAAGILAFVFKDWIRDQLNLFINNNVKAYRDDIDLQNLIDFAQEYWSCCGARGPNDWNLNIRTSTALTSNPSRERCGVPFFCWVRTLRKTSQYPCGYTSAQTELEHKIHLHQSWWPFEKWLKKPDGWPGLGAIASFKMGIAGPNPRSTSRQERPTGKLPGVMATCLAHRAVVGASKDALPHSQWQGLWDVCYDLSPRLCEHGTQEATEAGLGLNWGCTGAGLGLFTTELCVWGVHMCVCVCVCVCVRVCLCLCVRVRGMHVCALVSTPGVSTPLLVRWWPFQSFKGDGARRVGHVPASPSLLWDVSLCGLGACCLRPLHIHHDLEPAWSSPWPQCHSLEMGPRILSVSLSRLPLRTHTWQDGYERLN

`O=C(O)CCCCO` [UMB58] and `CC(C)(O)CCCC(=O)O` [UMB75] cannot be ordered by Ki: over 10 µM for the first, over 10 µM for the second.

First: O=C(O)/C=C1/CCCc2ccccc2C1O (centres undefined) [CAS_131413]
Second: CC(C)(O)CCC(=O)O [UMB68]
The Ki of the first is lower: 1.8 µM for the first, over 10 µM for the second. The first binds more tightly here.
